Assay results as given in ChEMBL document CHEMBL1201862, “PubChem BioAssay data set” (2004).
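Compound exposure: 48 hours, 5 concentrations, 96-well plates. GI50 marks 50% less growth.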 Active and inactive are the calls of the source. Cut-off read from the data, not from the text of the source: active = GI50 up to about 1.1 µM and inactive = higher.

How the values were obtained:
Test in all cases: NCI tumour cell line growth inhibition, 48 h
786-0 = test system: 786-0
A498 = test system: A498
A549 = test system: A549
ACHN = test system: ACHN
BT-549 = test system: BT-549
CAKI-1 = test system: CAKI-1
CCRF-CEM = test system: CCRF-CEM
COLO 205 = test system: COLO 205
DU-145 = test system: DU-145
HCC 2998 = test system: HCC 2998
HCT-116 = test system: HCT-116
HCT-15 = test system: HCT-15
HL-60 = test system: HL-60
HOP-92 = test system: HOP-92
HT-29 = test system: HT-29
Hs-578T = test system: Hs-578T
IGROV-1 = test system: IGROV-1
K562 = test system: K562
KM12 = test system: KM12
LOX IMVI = test system: LOX IMVI
M14 = test system: M14
MCF7 = test system: MCF7
MDA-MB-231 = test system: MDA-MB-231
MDA-N = test system: MDA-N
MOLT-4 = test system: MOLT-4
Malme-3M = test system: Malme-3M
NCI-H226 = test system: NCI-H226
NCI-H23 = test system: NCI-H23
NCI-H460 = test system: NCI-H460
NCI-H522 = test system: NCI-H522
NCI/ADR-RES = test system: NCI/ADR-RES
OVCAR-3 = test system: OVCAR-3
OVCAR-4 = test system: OVCAR-4
OVCAR-5 = test system: OVCAR-5
PC-3 = test system: PC-3
RPMI-8226 = test system: RPMI-8226
RXF 393 = test system: RXF 393
SF-268 = test system: SF-268
SF-539 = test system: SF-539
SK-MEL-28 = test system: SK-MEL-28
SK-MEL-2 = test system: SK-MEL-2
SK-MEL-5 = test system: SK-MEL-5
SK-OV-3 = test system: SK-OV-3
SNB-19 = test system: SNB-19
SNB-75 = test system: SNB-75
SR = test system: SR
SW-620 = test system: SW-620
T47D = test system: T47D
TK-10 = test system: TK-10
U-251 = test system: U-251
UACC-257 = test system: UACC-257
UACC-62 = test system: UACC-62
UO-31 = test system: UO-31
EKVX = test system: EKVX
HOP-62 = test system: HOP-62
MDA-MB-435 = test system: MDA-MB-435
OVCAR-8 = test system: OVCAR-8
SF-295 = test system: SF-295
SN12C = test system: SN12C

Measured: GI50

O=c1cc(NNc2cccc(Cl)c2)[nH]c(=O)[nH]1
inactive: 786-0 16200 nM | A498 42200 nM | A549 > 100000 nM | ACHN 38900 nM | BT-549 > 100000 nM | CAKI-1 19100 nM | CCRF-CEM 21600 nM | COLO 205 42100 nM | DU-145 72300 nM | HCC 2998 53000 nM | HCT-116 17900 nM | HL-60 19500 nM | HOP-92 18500 nM | HT-29 80200 nM | Hs-578T > 100000 nM | IGROV-1 > 100000 nM | K562 29000 nM | KM12 45500 nM | LOX IMVI 15400 nM | M14 16700 nM | MCF7 1880 nM | MDA-MB-231 17900 nM | MDA-N 73800 nM | MOLT-4 19800 nM | Malme-3M 16300 nM | NCI-H226 > 100000 nM | NCI-H23 59800 nM | NCI-H460 > 100000 nM | NCI-H522 17500 nM | NCI/ADR-RES > 100000 nM | OVCAR-3 17300 nM | OVCAR-4 > 100000 nM | OVCAR-5 77400 nM | PC-3 75300 nM | RPMI-8226 20300 nM | RXF 393 > 100000 nM | SF-268 > 100000 nM | SF-539 > 100000 nM | SK-MEL-28 95900 nM | SK-MEL-2 42400 nM | SK-MEL-5 51100 nM | SK-OV-3 > 100000 nM | SNB-19 46300 nM | SNB-75 88500 nM | SR 4290 nM | SW-620 18100 nM | T47D > 100000 nM | TK-10 20800 nM | U-251 > 100000 nM | UACC-257 44300 nM | UACC-62 31600 nM | UO-31 18800 nM
17100 nM: HCT-15

O=[N+]([O-])c1cccc2nc3ccccc3c(NCCCCNc3c4ccccc4nc4cccc([N+](=O)[O-])c34)c12
20.4 nM: HCT-15
active: 786-0 16.4 nM | A549 34.7 nM | ACHN 17 nM | BT-549 242 nM | CAKI-1 26.1 nM | CCRF-CEM < 16 nM | COLO 205 19.9 nM | DU-145 23.2 nM | EKVX 104 nM | HCC 2998 25.4 nM | HCT-116 14.3 nM | HL-60 < 10 nM | HOP-62 42 nM | HOP-92 23.3 nM | HT-29 < 10 nM | Hs-578T 191 nM | IGROV-1 118 nM | K562 < 21.6 nM | KM12 40.1 nM | LOX IMVI 62.1 nM | M14 38.9 nM | MCF7 21.6 nM | MDA-MB-231 17.8 nM | MDA-MB-435 48.9 nM | MDA-N 53.6 nM | MOLT-4 < 10.4 nM | Malme-3M 76.6 nM | NCI-H226 144 nM | NCI-H23 22.5 nM | NCI-H460 14.3 nM | NCI-H522 21.4 nM | NCI/ADR-RES 248 nM | OVCAR-3 39.5 nM | OVCAR-4 94.8 nM | OVCAR-5 164 nM | OVCAR-8 < 10 nM | PC-3 71.9 nM | RPMI-8226 30.1 nM | RXF 393 18.8 nM | SF-268 20.3 nM | SF-295 92.7 nM | SF-539 24.4 nM | SK-MEL-28 164 nM | SK-MEL-2 141 nM | SK-MEL-5 36.5 nM | SK-OV-3 293 nM | SN12C 41.4 nM | SNB-19 30.2 nM | SNB-75 85.9 nM | SW-620 < 12.2 nM | T47D 49.1 nM | TK-10 21.3 nM | U-251 26.1 nM | UACC-257 146 nM | UACC-62 134 nM | UO-31 129 nM
